Measured values as given in ChEMBL document CHEMBL1201862, “PubChem BioAssay data set” (2004).
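1) Cells in 96-well plates. 2) Compound, 48 h, 5 concentrations. 3) Linear interpolation between surrounding doses. 4) Unreached endpoint = highest concentration. GI50 = concentration required for 50% inhibition of growth.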 Activity calls are given as the source filed them. Cut-off read from the data, not from the text of the source: active = GI50 up to about 1.1 µM and inactive = higher.

Assays:
Test in all cases: inhibition of tumour cell growth, NCI panel, 48 h
[1] = tested on: HCC 2998
[2] = tested on: TK-10
[3] = tested on: SF-539
[4] = tested on: OVCAR-5
[5] = tested on: KM-20L2
[6] = tested on: HCT-116
[7] = tested on: CAKI-1
[8] = tested on: OVCAR-3
[9] = tested on: SNB-75
[10] = tested on: NCI-H522
[11] = tested on: SK-OV-3
[12] = tested on: SNB-19
[13] = tested on: OVCAR-8
[14] = tested on: CCRF-CEM
[15] = tested on: HT-29
[16] = tested on: SK-MEL-28
[17] = tested on: SR
[18] = tested on: MOLT-4

Measured: GI50

COc1ccc(C(Cl)=C(c2ccc(OCCN(C)C)cc2)c2ccc(OCCN(C)C)cc2)cc1
inactive: [1] 2.26 µM | [2] 17.1 µM | [3] 1.57 µM | [4] 1.73 µM | [5] 1.36 µM | [6] 1.13 µM | [7] 4.6 µM | [8] 2.09 µM | [9] 1.44 µM | [10] 1.57 µM | [11] 2.53 µM | [12] 2.42 µM | [13] 1.87 µM | [14] 1.16 µM | [15] 1.49 µM | [16] 1.63 µM | [17] 1.36 µM | [18] 1.22 µM

COc1cccc(C(=O)N2CCc3ccccc32)c1OC
inactive: [1] 85.1 µM | [2] 57.8 µM | [3] > 100 µM | [4] > 100 µM | [5] 80.2 µM | [6] 56.5 µM | [7] 38.5 µM | [8] 38.5 µM | [9] 68.4 µM | [10] 47.6 µM | [11] 48.8 µM | [12] 74.8 µM | [13] 78.3 µM | [14] 42.2 µM | [15] 38.9 µM | [16] > 100 µM | [17] 29.4 µM | [18] 23 µM

COc1ccc2c(c1)C(=O)N1CCOC1C2C(=O)O (configuration not stated)
inactive: [1] > 100 µM | [2] > 100 µM | [3] > 100 µM | [4] > 100 µM | [5] > 100 µM | [6] > 100 µM | [7] > 100 µM | [8] > 100 µM | [9] > 100 µM | [10] > 100 µM | [11] > 100 µM | [12] > 100 µM | [13] > 100 µM | [14] > 100 µM | [15] > 100 µM | [16] > 100 µM | [17] > 100 µM | [18] > 100 µM

O=C1C=CC2(CCCCCCC2=O)CC1 (configuration not stated)
inactive: [1] > 100 µM | [2] > 100 µM | [3] > 100 µM | [4] > 100 µM | [5] > 100 µM | [6] > 100 µM | [7] > 100 µM | [8] > 100 µM | [9] 57.9 µM | [10] > 100 µM | [11] > 100 µM | [12] > 100 µM | [13] > 100 µM | [14] > 100 µM | [15] > 100 µM | [16] > 100 µM | [17] > 100 µM | [18] > 100 µM
